A short description of series [1]: Aqueous solubility (buffer vs acetonitrile/water, LC-UV). Format: physicochemical. Conditions: kinetic from dmso stock, buffer pH 6.8, 24 h of shaking, DMSO concentration of 2.5%. Here is the method: The aqueous solubility of the compounds of the invention is determined by comparing the amount dissolved in buffer to the amount in an acetonitrile/water (1/1) solution. Starting from a 10 mM DMSO stock solution aliquots are diluted with acetonitrile/water (1/1) or buffer, respectively. After 24 h of shaking, the solutions are filtrated and analyzed by LC-UV. The amount dissolved in buffer is compared to the amount in the acetonitrile solution. Solubility is usually being measured from 0.001 to 0.125 mg/mL at a DMSO concentration of 2.5%. If more than 90% of the compound is dissolved in buffer, the value is marked with “>”.

A further series deals with human GPR40 receptor (Homo sapiens, UniProt O14842). The series can be described thus: IP1 accumulation measurements using the IPOne assay system. Type of series: cell-based. The settings on record: 1321N1 cells stably expressing human GPR40 receptor; stimulated 1 h at 37° C. Here is the method: IP1 is assayed according to the manufacturers description (Cisbio Bioassays, France). In brief, the assay is started by substitution of the culture medium by stimulation buffer (Hepes 10 mM, CaCl2 1 mM, MgCl2 0.5 mM, KCl 4.2 mM, NaCl 146 mM, glucose 5.5 mM and LiCl 50 mM, pH 7.4). Cells are stimulated for 1 h at 37° C., 5% CO2 by addition of the compounds that are diluted in stimulation buffer containing LiCl. Assays are stopped by adding HTRF-conjugates (IP1-d2 and Anti-IP1 cryptate Tb) and lysis buffer, provided by the manufacturer. After an incubation time of 1 h at room temperature plates are measured using an EnVision™, Perkin Elmer. The obtained fluorescence ratios at 665/615 […] are then used to calculate the pEC50 values using Assay Explorer 3.3 Software (Accelrys, Inc.) by interpolation using an IP1 reference curve and subsequent sigmoidal curve fitting allowing for a variable hill slope.

Structures are written as SMILES. ≈ marks a conversion by molar mass, not a printed value.

Sequence of human GPR40 receptor (O14842 whole entry): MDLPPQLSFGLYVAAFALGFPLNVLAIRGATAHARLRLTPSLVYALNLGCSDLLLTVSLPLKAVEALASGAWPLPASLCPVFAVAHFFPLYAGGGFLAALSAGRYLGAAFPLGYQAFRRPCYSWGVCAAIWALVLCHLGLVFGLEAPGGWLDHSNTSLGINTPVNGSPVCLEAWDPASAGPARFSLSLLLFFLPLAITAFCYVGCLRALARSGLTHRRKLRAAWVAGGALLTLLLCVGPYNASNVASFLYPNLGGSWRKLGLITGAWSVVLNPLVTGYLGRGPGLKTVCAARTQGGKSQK

With `Cc1cc(OCCC(C)(C)O)cc(C)c1-c1ccc(F)c2c1CC[C@H]2Oc1ccc([C@H]2C[C@@H]2C(=O)O)cc1` [Example 17 in WO 2013/178575, reference compound], in series [1], the solubility at 24 h is below 1 µg/mL.

In the case of `Cc1cc(OCCC(C)(C)O)cc(C)c1-c1ccc(F)c(CNc2cnc([C@H]3C[C@@H]3C(=O)O)cn2)c1` [Example 19], at human GPR40 receptor, a half-maximal effect (EC50) was put at 16 nM. The compound further displayed a solubility at 24 h in series [1] of 72 µg/mL (≈ 146 µM).

As for `Cc1cc(-c2nnn(C)n2)cc(C)c1-c1ccc(F)c(CNc2cnc([C@H]3C[C@@H]3C(=O)O)cn2)c1` [Example 26], the EC50 on human GPR40 receptor came out at 6 nM. This compound had a solubility at 24 h in series [1] of 47 µg/mL (≈ 99.3 µM).

With `Cc1cc(-c2nnn(C)n2)cc(C)c1-c1ccc(F)c2c1CC[C@H]2Oc1ccc([C@H]2C[C@@H]2C(=O)O)cc1` [Example 45 in WO 2013/178575, reference compound], the solubility at 24 h in series [1] is below 1 µg/mL.
